Source: patent US12091426B2, “Bifunctional degraders of hematopoietic progenitor kinase and therapeutic uses thereof” (Nurix Therapeutics, Inc., priority 2021, dated 2024)

Molecular target: T1, HPK1 (Homo sapiens, UniProt Q92918)
T1 construct: A HiBiT tag was introduced by CRISPR on the N terminus of HPK1 in Jurkat cells; host or cells: Jurkat cells (ATCC TIB-152), monoclonal line with CRISPR knock-in of HiBiT at the endogenous HPK1 locus
Experiment: HPK1 Cellular HiBit Degradation Assay
Format: cell-based
Settings: HiBiT HPK1 Jurkat cells, 24 hrs; for DC50: concentration at which 50% of HPK1 was remaining, read-out: DC50 Category; for Dmax: Jurkat, maximum degradation vs DMSO vehicle control, read-out: Dmax Category
In short: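 HPK1 levels are read by HiBiT luminescence after 24 h exposure of HiBiT-knock-in Jurkat cells to compound at 10 uM–0.1 nM final (11 points). Relative to DMSO (100%), DC50 is the concentration leaving 50% HPK1 from a variable-slope fit, and Dmax is 100 minus minimum remaining. Viability checked in-plate.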

T1 sequence (Q92918 whole entry): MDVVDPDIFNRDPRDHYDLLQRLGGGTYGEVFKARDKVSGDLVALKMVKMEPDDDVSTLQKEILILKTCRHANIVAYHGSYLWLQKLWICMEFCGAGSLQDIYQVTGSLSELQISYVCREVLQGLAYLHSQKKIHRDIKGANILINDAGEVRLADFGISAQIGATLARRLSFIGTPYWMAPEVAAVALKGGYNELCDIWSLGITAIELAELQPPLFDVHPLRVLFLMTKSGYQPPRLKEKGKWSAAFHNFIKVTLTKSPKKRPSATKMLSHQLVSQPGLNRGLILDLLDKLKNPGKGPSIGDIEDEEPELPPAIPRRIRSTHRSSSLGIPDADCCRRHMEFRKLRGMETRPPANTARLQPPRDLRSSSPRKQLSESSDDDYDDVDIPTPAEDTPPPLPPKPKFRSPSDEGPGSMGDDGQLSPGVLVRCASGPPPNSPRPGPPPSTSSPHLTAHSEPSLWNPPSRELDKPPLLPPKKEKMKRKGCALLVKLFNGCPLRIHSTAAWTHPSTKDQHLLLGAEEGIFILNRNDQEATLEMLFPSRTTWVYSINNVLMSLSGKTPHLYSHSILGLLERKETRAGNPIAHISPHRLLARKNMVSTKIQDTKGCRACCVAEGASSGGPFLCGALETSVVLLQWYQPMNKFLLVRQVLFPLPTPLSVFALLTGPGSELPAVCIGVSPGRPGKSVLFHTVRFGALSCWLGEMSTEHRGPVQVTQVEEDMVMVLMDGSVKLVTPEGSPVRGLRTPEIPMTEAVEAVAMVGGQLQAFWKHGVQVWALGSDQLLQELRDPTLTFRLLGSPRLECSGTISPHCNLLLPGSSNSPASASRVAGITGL

DC50 [µM] | Dmax [%] | SMILES
< 0.1 | 50 to 70 | CC(C)n1cnc2cc(-c3ccc4c(c3)N([C@H]3C[C@@H](N5CCCCC5)C3)C(=O)C43CCN(C(=O)C4CCN(C(=O)C5CCN(c6ccc(N7CCC(=O)NC7=O)cn6)CC5)CC4)CC3)nc(Nc3ccncc3F)c21 [Example 81, 1-[6-(4-{4-[(6-{4-[(3-Fluoropyridin-4-yl)amino]-3-(propan-2-yl)-3H-imidazo[4,5-c]pyridin-6-yl}-2-oxo-1-[(1S,3S)-3-(piperidin-1-yl)cyclobutyl]-1,2-dihydrospiro[indole-3,4′-piperidin]-1′-yl)carbonyl]piperidine-1-carbonyl}piperidin-1-yl)pyridin-3-yl]-1,3-diazinane-2,4-dione]
0.1 to 0.5 | 50 to 70 | CC(C)n1cnc2cc(-c3ccc4c(c3)N([C@H]3C[C@@H](N5CCCCC5)C3)C(=O)C43CCN(C(=O)c4cccc(C5CCN(C(=O)C6CCN(c7ccc(C8CCC(=O)NC8=O)cn7)CC6)CC5)c4)CC3)nc(NC3CC3)c21 (mixture of isomers) [Example 301, (3RS)-3-[6-(4-{4-[3-({6-[4-(cyclopropylamino)-3-(propan-2-yl)-3H-imidazo[4,5-c]pyridin-6-yl]-2-oxo-1-[(1S,3S)-3-(piperidin-1-yl)cyclobutyl]-1,2-dihydrospiro[indole-3,4′-piperidin]-1′-yl}carbonyl)phenyl]piperidine-1-carbonyl}piperidin-1-yl)pyridin-3-yl]piperidine-2,6-dione]
< 0.1 | > 85 | CC(C)n1cnc2cc(-c3ccc4c(c3)N([C@H]3C[C@@H](N5CCCCC5)C3)C(=O)C43CCN(C(=O)[C@@H]4CCN(C(=O)[C@H]5CC[C@H](Oc6ccc(C7CCC(=O)NC7=O)cc6)CC5)C4)CC3)nc(NC3CC3)c21 (stereo partly drawn) [Example 13, 3-(4-{[(1R,4R)-4-[(3R)-3-({6-[4-(cyclopropylamino)-3-(propan-2-yl)-3H-imidazo[4,5-c]pyridin-6-yl]-2-oxo-1-[(1S,3S)-3-(piperidin-1-yl)cyclobutyl]-1,2-dihydrospiro[indole-3,4′-piperidin]-1′-yl}carbonyl)pyrrolidine-1-carbonyl]cyclohexyl]oxy}phenyl)piperidine-2,6-dione]
< 0.1 | 70 to 85 | CC(C)n1cnc2cc(-c3ccc4c(c3)N([C@H]3C[C@@H](N5CCCCC5)C3)C(=O)C43CCN(C(=O)[C@@H]4CCCN(C(=O)[C@H]5CC[C@H](Oc6ccc(C7CCC(=O)NC7=O)cc6)CC5)C4)CC3)nc(NC3CC3)c21 (mixture of isomers) [Example 234, (3RS)-3-(4-{[(1R,4R)-4-[(3R)-3-({6-[4-(cyclopropylamino)-3-(propan-2-yl)-3H-imidazo[4,5-c]pyridin-6-yl]-2-oxo-1-[(1S,3S)-3-(piperidin-1-yl)cyclobutyl]-1,2-dihydrospiro[indole-3,4′-piperidin]-1′-yl}carbonyl)piperidine-1-carbonyl]cyclohexyl]oxy}phenyl)piperidine-2,6-dione]
< 0.1 | 70 to 85 | CC(C)n1cnc2cc(-c3ccc4c(c3)N([C@H]3C[C@@H](N5CCCCC5)C3)C(=O)C43CCN(C(=O)C4(C)CCN(C(=O)C5C6CCC5CN(c5ccc(N7CCC(=O)NC7=O)cn5)C6)CC4)CC3)nc(NC3CC3)c21 (stereo partly shown) [Example 155]
< 0.1 | 50 to 70 | CC(C)n1cnc2cc(-c3ccc4c(c3)N([C@H]3C[C@@H](N5CCCCC5)C3)C(=O)C43CCN(C(=O)C4(C)CCN(C(=O)[C@H]5CC[C@H](Cn6cc7cc(C8CCC(=O)NC8=O)ccc7n6)CC5)CC4)CC3)nc(Nc3ccccc3F)c21 (mixture of isomers) [Example 190, (3RS)-3-(2-{[(1R,4R)-4-{4-[(6-{4-[(2-fluorophenyl)amino]-3-(propan-2-yl)-3H-imidazo[4,5-c]pyridin-6-yl}-2-oxo-1-[(1S,3S)-3-(piperidin-1-yl)cyclobutyl]-1,2-dihydrospiro[indole-3,4′-piperidin]-1′-yl)carbonyl]-4-methylpiperidine-1-carbonyl}cyclohexyl]methyl}-2H-indazol-5-yl)piperidine-2,6-dione]
< 0.1 | > 85 | CC(C)n1cnc2cc(-c3ccc4c(c3)N([C@H]3C[C@@H](N5CCCCC5)C3)C(=O)C43CCN(C(=O)C4(C)CCN(C(=O)C5CCN(c6ccc(C7CCC(=O)NC7=O)cn6)CC5)CC4)CC3)nc(N[C@H]3C[C@@H](C#N)C3)c21 (stereo partly drawn) [Example 174, (1S,3S)-3-({6-[1′-(1-{1-[5-(2,6-dioxopiperidin-3-yl)pyridin-2-yl]piperidine-4-carbonyl}-4-methylpiperidine-4-carbonyl)-2-oxo-1-[(1S,3S)-3-(piperidin-1-yl)cyclobutyl]-1,2-dihydrospiro-[indole-3,4′-piperidin]-6-yl]-3-(propan-2-yl)-3H-imidazo[4,5-c]pyridin-4-yl}amino)cyclobutane-1-carbonitrile]
0.1 to 0.5 | 70 to 85 | CC(C)n1cnc2cc(-c3ccc4c(c3)N([C@H]3C[C@@H](N5CCCCC5)C3)C(=O)C43CCN(C(=O)C4(C)CCN(C(=O)C5CCN(c6ccc(C7CCC(=O)NC7=O)cn6)CC5)CC4)CC3)nc(N[C@H]3C[C@H](C#N)C3)c21 (stereo partly drawn) [Example 176, (1R,3R)-3-({6-[1′-(1-{1-[5-(2,6-dioxopiperidin-3-yl)pyridin-2-yl]piperidine-4-carbonyl}-4-methylpiperidine-4-carbonyl)-2-oxo-1-[(1S,3S)-3-(piperidin-1-yl)cyclobutyl]-1,2-dihydrospiro[indole-3,4′-piperidin]-6-yl]-3-(propan-2-yl)-3H-imidazo[4,5-c]pyridin-4-yl}amino)cyclobutane-1-carbonitrile]
< 0.1 | > 85 | CC(C)n1cnc2cc(-c3ccc4c(c3)N([C@H]3C[C@@H](N5CCCCC5)C3)C(=O)C43CCN(C(=O)C4(C)CCN(C(=O)[C@H]5CC[C@H](Oc6ccc(C7CCC(=O)NC7=O)cn6)CC5)CC4)CC3)nc(Nc3ccccc3F)c21 (mixture of isomers) [Example 105, (3RS)-3-(6-{1[(1R,4R)-4-{4-[(6-{4-[(2-fluorophenyl)amino]-3-(propan-2-yl)-3H-imidazo[4,5-c]pyridin-6-yl}-2-oxo-1-[(1S,3S)-3-(piperidin-1-yl)cyclobutyl]-1,2-dihydrospiro[indole-3,4′-piperidin]-1′-yl)carbonyl]-4-methylpiperidine-1-carbonyl}cyclohexyl]oxy}pyridin-3-yl)piperidine-2,6-dione]
< 0.1 | 70 to 85 | CC(C)n1cnc2cc(-c3ccc4c(c3)N([C@H]3C[C@@H](N5CCCCC5)C3)C(=O)C43CCN(C(=O)C4(C)CCN(C(=O)C5CCN(c6ccc(C7CCC(=O)NC7=O)nn6)CC5)CC4)CC3)nc(NC3CC3)c21 (mixture of isomers) [Example 209, (3RS)-3-(6-{4-[4-({6-[4-(cyclopropylamino)-3-(propan-2-yl)-3H-imidazo[4,5-c]pyridin-6-yl]-2-oxo-1-[(1S,3S)-3-(piperidin-1-yl)cyclobutyl]-1,2-dihydrospiro[indole-3,4′-piperidin]-1′-yl}carbonyl)-4-methylpiperidine-1-carbonyl]piperidin-1-yl}pyridazin-3-yl)piperidine-2,6-dione]
0.5 to 1 | 50 to 70 | Cc1cc(C(=O)N2CCC3(CC2)C(=O)N([C@H]2C[C@@H](N4CCCCC4)C2)c2cc(-c4cc5ncn(C(C)C)c5c(Nc5ccccc5F)n4)ccc23)ccc1C(=O)N1CCN(c2ccc3c(c2)C(=O)N(C2CCC(=O)NC2=O)C3=O)CC1 (mixture of isomers) [Example 125, 2-[(3RS)-2,6-dioxopiperidin-3-yl]-5-(4-{4-[(6-{4-[(2-fluorophenyl)amino]-3-(propan-2-yl)-3H-imidazo[4,5-c]pyridin-6-yl}-2-oxo-1-[(1S,3S)-3-(piperidin-1-yl)cyclobutyl]-1,2-dihydrospiro[indole-3,4′-piperidin]-1′-yl)carbonyl]-2-methylbenzoyl}piperazin-1-yl)-2,3-dihydro-1H-isoindole-1,3-dione]
0.1 to 0.5 | 70 to 85 | Cc1cc(N2CCC(C(=O)N3CCC(C)(C(=O)N4CCC5(CC4)C(=O)N([C@H]4C[C@@H](N6CCCCC6)C4)c4cc(-c6cc7ncn(C(C)C)c7c(NC7CC7)n6)ccc45)CC3)CC2)ccc1C1CCC(=O)NC1=O (mixture of isomers) [Example 227, (3RS)-3-(4-{4-[4-({6-[4-(cyclopropylamino)-3-(propan-2-yl)-3H-imidazo[4,5-c]pyridin-6-yl]-2-oxo-1-[(1S,3S)-3-(piperidin-1-yl)cyclobutyl]-1,2-dihydrospiro[indole-3,4′-piperidin]-1′-yl}carbonyl)-4-methylpiperidine-1-carbonyl]piperidin-1-yl}-2-methylphenyl)piperidine-2,6-dione]

SMILES | DC50 [µM] | Dmax [%]
CC(C)n1cnc2cc(-c3ccc4c(c3)N([C@H]3C[C@@H](N5CCCCC5)C3)C(=O)C43CCN(C(=O)C4[C@@H]5C[C@H]4CN(C(=O)CC4CCN(c6ccc(C7CCC(=O)NC7=O)cn6)CC4)C5)CC3)nc(NC3CC3)c21 (stereo partly drawn) [Example 240, 3-(6-(4-(2-((1R,5S,6S)-6-(6-(4-(cyclopropylamino)-3-isopropyl-3H-imidazo[4,5-c]pyridin-6-yl)-2-oxo-1-((1S,3S)-3-(piperidin-1-yl)cyclobutyl)spiro[indoline-3,4′-piperidine]-1′-carbonyl)-3-azabicyclo[3.1.1]heptan-3-yl)-2-oxoethyl)piperidin-1-yl)pyridin-3-yl)piperidine-2,6-dione] | < 0.1 | > 85
CC(C(=O)N1CCN(C(=O)C2CCN(c3cc(C4CCC(=O)NC4=O)ccn3)CC2)CC1)N1CCC2(CC1)C(=O)N([C@H]1C[C@@H](N3CCCCC3)C1)c1cc(-c3cc4ncn(C(C)C)c4c(NC4CC4)n3)ccc12 (stereo partly drawn) [Example 173, 3-(2-{4-[4-(2-{6-[4-(cyclopropylamino)-3-(propan-2-yl)-3H-imidazo[4,5-c]pyridin-6-yl]-2-oxo-1-[(1S,3S)-3-(piperidin-1-yl)cyclobutyl]-1,2-dihydrospiro[indole-3,4′-piperidin]-1′-yl}propanoyl)piperazine-1-carbonyl]piperidin-1-yl}pyridin-4-yl)piperidine-2,6-dione] | 0.1 to 0.5 | 70 to 85
